Data: ChEMBL document CHEMBL5154916, “Multiparameter Optimization of Naphthyridine Derivatives as Selective α5-GABAA Receptor Negative Allosteric Modulators” (J Med Chem, 2022)
≈ marks a conversion by molar mass, not a printed value.

Legend:
[1] = Plasma level ratio in Wistar rat assessed as ratio between plasma concentration in PCP-induced toxicity Wistar rat model to plasma concentration in pro-cognitive activity for subchronic PCP-induced cognitive impairment associated schizophrenia Wistar rat model
[2] = Thermodynamic solubility of the compound at pH 6.5; format: physicochemical; settings: buffer, read-out: Therm_solubility
[3] = Bioavailability in Wistar rat total plasma at 1 mg/kg, iv by HPLC-MS/MS analysis; format: ADME, organism-based
[4] = Genotoxicity in Salmonella typhimurium up to 5000 ug/ml by Ames test; format: toxicity; settings: salmonella enterica subsp. enterica serovar typhimurium; dose < 5000 µg/ml
[5] = Cmax in Wistar rat total plasma at 1 mg/kg, po by HPLC-MS/MS analysis; format: ADME, organism-based; design: dose 1 mg/kg, route po
Cytochrome P450 2C8 = target: T1, Cytochrome P450 2C8 (Homo sapiens, UniProt P10632); test: Inhibition of CYP2C8 (unknown origin); format: ADME
T1 sequence (P10632 whole entry): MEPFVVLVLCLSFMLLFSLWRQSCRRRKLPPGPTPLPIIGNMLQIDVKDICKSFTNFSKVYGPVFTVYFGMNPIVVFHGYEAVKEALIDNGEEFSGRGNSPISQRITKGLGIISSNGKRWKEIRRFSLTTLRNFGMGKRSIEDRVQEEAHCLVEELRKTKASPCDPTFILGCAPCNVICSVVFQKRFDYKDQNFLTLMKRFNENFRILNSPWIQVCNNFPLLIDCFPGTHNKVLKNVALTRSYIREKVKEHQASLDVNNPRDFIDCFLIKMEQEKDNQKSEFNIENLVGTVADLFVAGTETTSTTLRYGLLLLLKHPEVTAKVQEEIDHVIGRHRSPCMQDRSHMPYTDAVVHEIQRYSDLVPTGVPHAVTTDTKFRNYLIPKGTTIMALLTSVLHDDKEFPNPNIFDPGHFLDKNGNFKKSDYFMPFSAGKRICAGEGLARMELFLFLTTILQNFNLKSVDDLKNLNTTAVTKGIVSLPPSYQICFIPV

[6] = Metabolic stability in dog hepatocyte assessed as intrinsic clearance measured per 10^6 cells; format: ADME, cell-based, Canis lupus familiaris; settings: hepatocytes, read-out: CLH
[7] = AUC (0 to infinity) in Wistar rat total plasma at 1 mg/kg, po by HPLC-MS/MS analysis; format: ADME, organism-based; design: time infinity, dose 1 mg/kg, route po

Cc1onc(-c2ccc(F)cc2)c1COc1ccc2c(n1)CCN(C(=O)CS(C)(=O)=O)C2
Ratio [1]: 11 | solubility thermodynamic [2]: 9.8 µM (≈ 4.5 µg/mL) | bioavailability [3]: 35.8% | Activity [4]: Non-Toxic | Cmax [5]: 115 ng/mL | IC50 (Cytochrome P450 2C8): > 50 µM | hepatocyte CLint [6]: 2 µL/min/1e6 cells | AUC(0-inf) [7]: 146 ng·h/mL
